Laboratory results published in patent US20240400571A1, “5,6 UNSATURATED BICYCLIC HETEROCYLES USEFUL AS INHIBITORS OF NOD-LIKE RECEPTOR PROTEIN 3” (Merck Sharp & Dohme LLC, priority 2023, published 2024).

Target: T1, NLRP3 inflammasome (Homo sapiens, UniProt Q96P20)
T1 construct: host or cells: THP-1 human monocytic cells, treated with PMA and stimulated with gramicidin
Test: ASC-SPECK formation in THP-1 cells after gramicidin stimulation (NLRP3 inflammasome activation)
Type: cell-based
Conditions: PMA-treated human monocytic THP-1 cells; compound 1 h before 12.5 μg/ml gramicidin, 3-hour treatment; ASC SPECK imaging; read-out: EC50 values (nM) for Examples that inhibit NLRP3 inflammasome activation
Procedure: The ability of compounds to inhibit NLRP3 inflammasome activation was determined in vitro by monitoring formation of the ASC-SPECK in human monocytic THP-1 cells after stimulation. THP-1 cells (ATCC catalog #TIB-202) were maintained in complete growth media containing Roswell Park Memorial Institute RPMI (ATCC catalog #30-2001), 10% heat inactivated fetal bovine serum, 1× penicillin/streptomycin and 0.05 mM 2-mercaptoethanol. At the start of the assay, undifferentiated THP-1 cells were plated at a density of 20,000 cells per well in a 384-well plate (Poly-D-lysine coated Cell Carrier Ultra microplate, Perkin Elmer catalog #6057500) in complete growth media supplemented with 10 ng/ml phorbol 12-myristate 13-acetate (PMA; Sigma catalog #P8139), and then incubated overnight. The next day, media was replaced with assay media [RPMI (Gibco catalog #11875-093), 0.01% bovine serum albumin (BSA)]. Compounds were serially diluted in DMSO and then added to wells one hour prior to the addition of 12.5 μg/ml Gramicidin (Enzo Lifescience, catalog #ALX-350-233-M005). All incubations were carried out at 37° C. (5% CO2/95% air). Following a 3-hour treatment with gramicidin, cells are fixed with 4% paraformaldehyde and stored at 4° C. until immunofluorescence staining.
Immunofluorescence staining: Anti-ASC antibody (MBL catalog #D086-3) was desalted and labeled with Alexa 488 antibody labeling kit (Thermo catalog #A20181) prior to use as described below. After fixation, the following steps were carried out at room temperature. Cells were first permeabilized with 0.3% Triton X-100 in phosphate-buffered saline (PBS) for 15 minutes and then incubated in blocking buffer containing 5% goat serum, 0.3% tween-20 and 0.03% sodium azide in PBS for 1 hour. Cells were stained with a mixture of ASC-Alexa 488 antibody (diluted 1:200 in blocking buffer) and nuclear stain DRAQ5 (1:5000 in blocking buffer, Thermo catalog #62251) in blocking buffer for 1 hour. Following a wash with 0.3% Tween-20 in PBS, plates were imaged with an Opera Phenix High Content Screening System. The number of DRAQ5 positive cells containing ASC SPECKS were quantified in each well.
Data analysis: EC50 values were calculated by standard curve-fitting analysis using an internally developed program in TIBCO Spotfire software.

T1 sequence (Q96P20 whole entry): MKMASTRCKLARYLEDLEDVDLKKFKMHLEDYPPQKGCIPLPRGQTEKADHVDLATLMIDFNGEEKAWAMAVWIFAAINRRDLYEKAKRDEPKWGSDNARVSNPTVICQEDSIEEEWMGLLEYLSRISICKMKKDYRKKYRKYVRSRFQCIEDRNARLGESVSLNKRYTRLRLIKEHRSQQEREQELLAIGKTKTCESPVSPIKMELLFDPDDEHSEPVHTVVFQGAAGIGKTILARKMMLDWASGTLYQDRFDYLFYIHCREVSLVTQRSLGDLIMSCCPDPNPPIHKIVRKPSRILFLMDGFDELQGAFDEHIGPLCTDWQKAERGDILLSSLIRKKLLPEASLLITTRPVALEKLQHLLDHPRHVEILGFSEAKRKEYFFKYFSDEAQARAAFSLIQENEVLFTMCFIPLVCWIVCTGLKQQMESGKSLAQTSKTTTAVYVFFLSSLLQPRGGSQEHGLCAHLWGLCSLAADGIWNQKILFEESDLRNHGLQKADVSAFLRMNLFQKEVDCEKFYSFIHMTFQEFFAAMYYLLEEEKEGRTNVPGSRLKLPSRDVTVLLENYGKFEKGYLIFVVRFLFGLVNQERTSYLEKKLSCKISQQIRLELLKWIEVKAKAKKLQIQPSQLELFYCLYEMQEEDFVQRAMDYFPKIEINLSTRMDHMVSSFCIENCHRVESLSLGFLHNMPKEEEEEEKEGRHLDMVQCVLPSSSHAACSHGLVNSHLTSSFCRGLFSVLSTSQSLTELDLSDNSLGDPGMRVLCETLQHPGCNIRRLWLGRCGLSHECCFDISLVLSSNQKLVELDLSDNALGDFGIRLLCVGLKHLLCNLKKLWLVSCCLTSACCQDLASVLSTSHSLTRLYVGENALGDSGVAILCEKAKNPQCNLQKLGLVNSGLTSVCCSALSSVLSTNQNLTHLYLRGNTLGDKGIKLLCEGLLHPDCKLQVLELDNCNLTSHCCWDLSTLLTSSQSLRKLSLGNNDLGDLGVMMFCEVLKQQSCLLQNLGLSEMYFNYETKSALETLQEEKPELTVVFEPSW

EC50: 996 nM
SMILES: Cc1c(-c2ccc3c(c2O)CC(F)(F)C3)nnc2c1ncn2[C@@H]1CCCN(C)C1 [Example 21, (R)-2,2-difluoro-5-(4-methyl-7-(1-methylpiperidin-3-yl)-7H-imidazo[4,5-c]pyridazin-3-yl)-2,3-dihydro-1H-inden-4-ol]
